IC50 data for 1 substance are collected here from patent publication US20230025327A1, “CONJUGATES OF TUBULYSIN DERIVATIVES AND CELL BINDING MOLECULES AND METHODS OF MAKING” (Hangzhou DAC Biotech Co., Ltd., priority 2019, published 2023).

The experiment has as its system NCI-N87, a human gastric carcinoma cell line. The following applies: read-out: IC50 of NCI-N87 cells, 120 hours incubation, MTT. As to the method: The inhibition % was calculated according to the following equation: inhibition %=[1-(assay-blank)/(control-blank)]×100.

Take T-DM1: the concentration for half-maximal inhibition (IC50) was found to be 0.32 nM.
